Measurements from patent US20250320496A1, “MODULATION OF ABCB11 GENE TRANSCRIPTION USING ANTISENSE OLIGONUCLEOTIDES TARGETING REGULATORY RNAS” (CAMP4 Therapeutics Corporation, priority 2022, published 2025).
Strand notation (5' to 3'): a small letter for the sugar, then the base; units joined by * are phosphorothioate-linked, units joined directly phosphodiester-linked; [ ] holds rarer units or linkages, { } end groups; capitals alone tell only the bases. e = 2'-O-(2-methoxyethyl) (MOE); l = locked nucleic acid (LNA); [5mC] = 5-methylcytosine

Tested on: human ABCB11 mRNA
Assay: ASO treatment of primary human hepatocytes (PHH), ABCB11 mRNA by RT-qPCR normalized to B2M
Format: cell-based
Details: primary human hepatocytes, 5 μM ASO with PO-modifications, normalized to untreated hepatocytes
Outline: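 ABCB11 mRNA was quantified by Taqman RT-qPCR relative to B2M and expressed as fold over untreated cells. Cells were cryopreserved primary human hepatocytes given ASO in Matrigel-supplemented medium 4 h after plating, at 1.25, 2.5, 5 or 10 μM (5 μM for screening), and harvested after 72 hrs.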

Row | Substance | ABCB11 FC mRNA (5 μM ASO vs. untreated)
1 | CO-11239 (antisense eG*eT*eG*eGlA*eG*e[5mC]*eAeA*lA*e[5mC]*eTeA*eG*lG*e[5mC]eA*e[5mC]*eT*eG) | 1.53 fold change
2 | CO-11240 (antisense eG*eT*eG*eG*lAeG*e[5mC]*eA*eAlA*e[5mC]*eT*eAeG*lG*e[5mC]*eAe[5mC]*eT*eG) | 1.31 fold change
3 | CO-11241 (antisense eG*eTeG*eG*lA*eGe[5mC]*eA*eA*lAe[5mC]*eT*eA*eGlG*e[5mC]*eA*e[5mC]eT*eG) | 1.71 fold change
4 | CO-11242 (antisense eG*eTeG*eG*lAeG*e[5mC]*eAeA*lA*e[5mC]eT*eA*eGlG*e[5mC]*eAe[5mC]*eT*eG) | 1.49 fold change
5 | CO-11243 (antisense eG*eT*eGeG*lA*eGe[5mC]*eA*eAlA*e[5mC]*eTeA*eG*lGe[5mC]*eA*e[5mC]eT*eG) | 1.71 fold change
6 | CO-11244 (antisense eG*eT*eGeG*lAeG*e[5mC]eA*eAlA*e[5mC]eT*eAeG*lGe[5mC]*eAe[5mC]*eT*eG) | 1.29 fold change
7 | CO-11245 (antisense eG*eTeG*eGlA*eGe[5mC]*eAeA*lAe[5mC]*eTeA*eGlG*e[5mC]eA*e[5mC]eT*eG) | 1.59 fold change
8 | CO-12745 (antisense eG*eT*eG*eA*eGeGe[5mC]*eA*eT*e[5mC]*eA*eG*eG*eTeAeA*eG*eT*eT*e[5mC]) | 0.92 fold change
9 | CO-12746 (antisense eG*eT*eG*eAeGeGe[5mC]*eA*eT*e[5mC]*eA*eG*eG*eTeAeAeG*eT*eT*e[5mC]) | 1.09 fold change
10 | CO-12747 (antisense eG*eT*eGeAeGeGe[5mC]*eA*eT*e[5mC]*eA*eG*eG*eTeAeAeGeT*eT*e[5mC]) | 0.97 fold change
11 | CO-12748 (antisense eG*eTeGeAeGeGe[5mC]*eA*eT*e[5mC]*eA*eG*eG*eTeAeAeGeTeT*e[5mC]) | 0.91 fold change
12 | CO-12749 (antisense eG*eT*eGeA*eG*eG*e[5mC]*eAeT*e[5mC]*eA*eG*eGeT*eA*eA*eG*eTeT*e[5mC]) | 0.95 fold change
13 | CO-12750 (antisense eG*eT*eG*eAeG*eG*e[5mC]*eAeT*e[5mC]*eA*eGeG*eT*eA*eAeG*eT*eT*e[5mC]) | 1.39 fold change
14 | CO-12751 (antisense eG*eT*eG*eA*eGeG*e[5mC]*eA*eTe[5mC]*eA*eG*eGeT*eA*eA*eGeT*eT*e[5mC]) | 0.93 fold change
15 | CO-12752 (antisense eG*eTeG*eA*eG*eGe[5mC]*eA*eT*e[5mC]eA*eG*eG*eTeA*eA*eG*eTeT*e[5mC]) | 0.99 fold change
16 | CO-12753 (antisense eG*eTeG*eA*eGeG*e[5mC]*eAeT*e[5mC]*eAeG*eG*eTeA*eA*eGeT*eT*e[5mC]) | 1.03 fold change
17 | CO-12754 (antisense eG*eT*eGeA*eG*eGe[5mC]*eA*eTe[5mC]*eA*eGeG*eT*eAeA*eG*eTeT*e[5mC]) | 1.04 fold change
18 | CO-12755 (antisense eG*eT*eGeA*eGeG*e[5mC]eA*eTe[5mC]*eAeG*eGeT*eAeA*eGeT*eT*e[5mC]) | 0.99 fold change
19 | CO-12756 (antisense eG*eTeG*eAeG*eGe[5mC]*eAeT*e[5mC]eA*eGeG*eTeA*eAeG*eTeT*e[5mC]) | 1.33 fold change
